Data on twelve molecules can be found in PubChem BioAssay (NCI).

Structures are written as SMILES.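 Dose response: 5 concentrations. Exposure: 48 h. Format: 96-well plates. Endpoint: linear interpolation; highest concentration if not reached. Definition used: TGI = concentration required for complete inhibition of growth.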

Among the test systems are MOLT-4 leukemia; SK-MEL-5 melanoma; UACC-257 melanoma; MCF7 breast; UO-31 renal; NCI-H23 lung; CAKI-1 renal; SK-OV-3 ovarian; U251 CNS; M14 melanoma; SK-MEL-2 melanoma; TK-10 renal; MDA-MB-231 breast; OVCAR-8 ovarian; SF-539 CNS; MDA-MB-435; DU-145 prostate; HT29 colon; HCT-116 colon; MALME-3M melanoma.
Holding throughout (assay): inhibition of tumour cell growth, NCI panel, 48 h

Regarding `CCC(C(=O)C(=O)C(CC)P1(=O)OC(C)(C)CN1C(C)(C)C)P1(=O)OC(C)(C)CN1C(C)(C)C` (configuration not stated), the TGI in the assay with MOLT-4 leukemia was 82.3 µM; in the assay with SK-MEL-5 melanoma it was above 100 µM; in the assay on UACC-257 melanoma it was above 100 µM; with MCF7 breast, above 100 µM; in the assay with UO-31 renal, above 100 µM; with NCI-H23 lung, above 100 µM. The TGI in the assay on CAKI-1 renal, in the assay on SK-OV-3 ovarian, in the assay with U251 CNS, in the assay with M14 melanoma, with SK-MEL-2 melanoma and in the assay with TK-10 renal was above 100 µM throughout. Moreover, the TGI with MDA-MB-231 breast, in the assay on OVCAR-8 ovarian, in the assay with SF-539 CNS, in the assay with MDA-MB-435, in the assay with DU-145 prostate and in the assay with HT29 colon was above 100 µM in each case. In addition, the TGI with HCT-116 colon was above 100 µM.

In the case of `CCCCCCc1ccc(C(=O)NO)cc1`, the TGI in the assay with MOLT-4 leukemia was 50 µM; in the assay with SK-MEL-5 melanoma, above 100 µM; in the assay on UACC-257 melanoma, above 100 µM; in the assay on MCF7 breast, above 100 µM; with UO-31 renal it was 48.7 µM; in the assay on NCI-H23 lung it was above 100 µM. Besides, the TGI in the assay with CAKI-1 renal is 84.3 µM; in the assay with SK-OV-3 ovarian it was above 100 µM; in the assay on U251 CNS it was above 100 µM; in the assay with M14 melanoma, above 100 µM; in the assay on SK-MEL-2 melanoma, above 100 µM; in the assay with TK-10 renal, above 100 µM. The TGI in the assay on MDA-MB-231 breast was above 100 µM; in the assay with OVCAR-8 ovarian, 35.6 µM; with SF-539 CNS, above 100 µM; in the assay on MDA-MB-435 it was above 100 µM; in the assay with DU-145 prostate, 68.4 µM; in the assay on HT29 colon, above 100 µM. This molecule had a TGI with HCT-116 colon above 100 µM.

With `COc1cc(/C=C2\N=C(c3ccccc3)N(c3nc4cc(C)c(C)cc4s3)C2=O)ccc1O`, the TGI was above 100 µM with MOLT-4 leukemia; above 100 µM in the assay on SK-MEL-5 melanoma; above 100 µM in the assay on UACC-257 melanoma; 39.1 µM in the assay with MCF7 breast; above 100 µM in the assay with UO-31 renal; above 100 µM with CAKI-1 renal. The TGI in the assay with SK-OV-3 ovarian, with U251 CNS, in the assay on M14 melanoma, in the assay on SK-MEL-2 melanoma, with TK-10 renal and in the assay on MDA-MB-231 breast was above 100 µM in each case. The TGI in the assay on OVCAR-8 ovarian is above 100 µM; in the assay with SF-539 CNS, 60.9 µM; in the assay with MDA-MB-435, 52.1 µM; in the assay on DU-145 prostate, above 100 µM; with HT29 colon, 99.1 µM; with HCT-116 colon, 61.8 µM.

As for `Cc1ccc(N2C(=O)C=C(C3=C(O)C(=O)N(c4ccc(C)cc4)C3=O)C2=O)cc1`, the TGI in the assay on MOLT-4 leukemia, in the assay on SK-MEL-5 melanoma, in the assay with UACC-257 melanoma, in the assay on MCF7 breast, in the assay on UO-31 renal and with NCI-H23 lung was above 100 µM each time. Besides, the TGI in the assay on MALME-3M melanoma, with SK-OV-3 ovarian, in the assay with U251 CNS, in the assay with M14 melanoma, in the assay with TK-10 renal and with MDA-MB-231 breast was above 100 µM in each case. Moreover, the TGI in the assay with OVCAR-8 ovarian, with MDA-MB-435, in the assay with DU-145 prostate, with HT29 colon and in the assay with HCT-116 colon was above 100 µM throughout.

As to `COc1cccc2c1CCc1c(-c3ccc(F)cc3)cc(-c3ccc4ccccc4n3)nc1-2`, the TGI in the assay on MOLT-4 leukemia, with SK-MEL-5 melanoma, in the assay on UACC-257 melanoma, in the assay with MCF7 breast, in the assay with UO-31 renal and with NCI-H23 lung was above 100 µM in each case. Also, the TGI in the assay with MALME-3M melanoma, in the assay on CAKI-1 renal, in the assay with SK-OV-3 ovarian, in the assay with U251 CNS, in the assay on M14 melanoma and in the assay with SK-MEL-2 melanoma was above 100 µM each time. Besides, the TGI with TK-10 renal, in the assay with MDA-MB-231 breast, in the assay with OVCAR-8 ovarian, in the assay with SF-539 CNS, in the assay on MDA-MB-435 and with HT29 colon was above 100 µM throughout. For the same molecule, the TGI with HCT-116 colon was above 100 µM.

`N#Cc1c(=O)c2ccccc2n2c1[nH]c1ccccc12`: the TGI in the assay on MOLT-4 leukemia, in the assay with UACC-257 melanoma, in the assay with MCF7 breast, in the assay on UO-31 renal, in the assay on NCI-H23 lung and in the assay with CAKI-1 renal was above 100 µM each time. The TGI in the assay on U251 CNS, in the assay with M14 melanoma, with SK-MEL-2 melanoma, with TK-10 renal, with MDA-MB-231 breast and in the assay on OVCAR-8 ovarian was above 100 µM each time. Besides, the TGI in the assay on SF-539 CNS, in the assay on MDA-MB-435, in the assay with DU-145 prostate, with HT29 colon and with HCT-116 colon was above 100 µM in each case.

Take `CC(NO)/C(=N/O)c1ccco1` (configuration not stated): the TGI in the assay on MOLT-4 leukemia, in the assay with UACC-257 melanoma, in the assay with MCF7 breast, with UO-31 renal, with NCI-H23 lung and with MALME-3M melanoma was above 10 µM throughout. Moreover, the TGI in the assay on CAKI-1 renal, with U251 CNS, in the assay on M14 melanoma, in the assay on SK-MEL-2 melanoma, with TK-10 renal and in the assay on MDA-MB-231 breast was above 10 µM in each case. The TGI in the assay on OVCAR-8 ovarian, with MDA-MB-435, with DU-145 prostate, in the assay on HT29 colon and with HCT-116 colon was above 10 µM each time.

Take `O=C1/C(=C/c2ccc(OC(=O)c3ccccc3)cc2)CCC/C1=C\c1ccc(OC(=O)c2ccccc2)cc1`: the TGI with MOLT-4 leukemia, in the assay with SK-MEL-5 melanoma, in the assay on UACC-257 melanoma, in the assay on MCF7 breast, in the assay on UO-31 renal and with NCI-H23 lung was above 100 µM throughout. Moreover, the TGI in the assay with CAKI-1 renal, in the assay with U251 CNS, in the assay with M14 melanoma, in the assay with SK-MEL-2 melanoma, in the assay with TK-10 renal and in the assay with MDA-MB-231 breast was above 100 µM each time. The TGI with OVCAR-8 ovarian, in the assay on SF-539 CNS, with MDA-MB-435, in the assay with DU-145 prostate, in the assay on HT29 colon and with HCT-116 colon was above 100 µM throughout.

Regarding `CCOP(=O)(OCC)/C(=C/NC(=S)c1ccncc1)C(=O)OC`, the TGI in the assay on MOLT-4 leukemia, in the assay with SK-MEL-5 melanoma, with UACC-257 melanoma, with MCF7 breast, with UO-31 renal and in the assay on NCI-H23 lung was above 100 µM throughout. In addition, the TGI in the assay on CAKI-1 renal, with SK-OV-3 ovarian, with U251 CNS, in the assay on M14 melanoma, with SK-MEL-2 melanoma and with TK-10 renal was above 100 µM each time. The TGI with MDA-MB-231 breast, in the assay with OVCAR-8 ovarian, with SF-539 CNS, in the assay with MDA-MB-435, in the assay with DU-145 prostate and with HT29 colon was above 100 µM throughout. Besides, the TGI in the assay with HCT-116 colon is above 100 µM.

On to `COC(=O)[C@]12CC[C@H]3CC[C@H]([C@H]31)[C@H](c1ccccc1)N2`, for which the TGI was 56.5 µM in the assay with MOLT-4 leukemia; 27.9 µM in the assay on SK-MEL-5 melanoma; 29.6 µM in the assay with UACC-257 melanoma; 31.2 µM in the assay with MCF7 breast; 31.2 µM in the assay on UO-31 renal; 37.2 µM in the assay with NCI-H23 lung. Besides, the TGI with CAKI-1 renal was 41.4 µM; in the assay on SK-OV-3 ovarian it was 77.7 µM; with U251 CNS, 31.4 µM; in the assay with M14 melanoma, 32.7 µM; in the assay on SK-MEL-2 melanoma, 28.8 µM; in the assay with TK-10 renal, 32 µM. Also, the TGI in the assay on MDA-MB-231 breast was 30.6 µM; in the assay with OVCAR-8 ovarian, 37 µM; with SF-539 CNS it was 30.6 µM; with MDA-MB-435 it was 34.6 µM; in the assay on DU-145 prostate, 47.8 µM; with HT29 colon it was 29.5 µM. For the same molecule, the TGI with HCT-116 colon was 29.5 µM.

Regarding `O=C(O)C1CCCCC1C(=O)Nn1cnnc1` (configuration not stated), the TGI with MOLT-4 leukemia, in the assay on SK-MEL-5 melanoma, with UACC-257 melanoma, with MCF7 breast, in the assay with UO-31 renal and in the assay on NCI-H23 lung was above 100 µM throughout. The TGI with SK-OV-3 ovarian, with U251 CNS, in the assay with M14 melanoma, in the assay on SK-MEL-2 melanoma, in the assay with TK-10 renal and in the assay on MDA-MB-231 breast was above 100 µM each time. The TGI in the assay with OVCAR-8 ovarian, with SF-539 CNS, with MDA-MB-435, with DU-145 prostate, with HT29 colon and in the assay with HCT-116 colon was above 100 µM in each case.

Regarding `C=CC1CCC[N+]1(CC(=O)OCC)Cc1ccccc1` (configuration not stated), the TGI in the assay with MOLT-4 leukemia, with SK-MEL-5 melanoma, in the assay with UACC-257 melanoma, in the assay with MCF7 breast, in the assay on UO-31 renal and with NCI-H23 lung was above 100 µM each time. Besides, the TGI in the assay on MALME-3M melanoma, in the assay on SK-OV-3 ovarian, with U251 CNS, with M14 melanoma, in the assay with TK-10 renal and in the assay with MDA-MB-231 breast was above 100 µM throughout. For the same molecule, the TGI in the assay on OVCAR-8 ovarian, with MDA-MB-435, in the assay on DU-145 prostate, in the assay on HT29 colon and with HCT-116 colon was above 100 µM in each case.
